Source: US20190375708A1 (VenatoRx Pharmaceuticals, Inc., priority 2018, published 2019)

Key:
[1] = tested on: HBV replication in HepAD38 cells; assay: Anti-HBV replication assay in HepAD38 cells (QPCR of extracellular HBV DNA); type: cell-based, HBV (genotype D, serotype ayw); settings: Hepatitis B virus, 168 h, 7 days incubation, extracellular HBV DNA by QPCR, read-out: Anti-HBV EC50
Summary of the method: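 Read-out is QPCR of HBV DNA released into culture supernatant, converted to percent of vehicle control and fitted to give EC50. Cells were HepAD38 induced by tetracycline removal and dosed […] for 7 days.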

[2] = In vitro cytotoxicity assay (MTT cell viability) in HepG2 cells; type: cell-based, human; settings: human
Summary of the method: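 Read-out: MTT formazan absorbance at 492 nm, expressed as % of vehicle signal; CC50 by 4-parameter non-linear regression. Parental HepG2, 20,000 cells/well, treated 7 days with compound from 30 μM down to 1.0 nM.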

| SMILES | EC50 [1] | CC50 at 7 days [2] |
| --- | --- | --- |
| Cc1cc(NC(=O)c2c(C)c(C(=O)C(=O)N[C@H]3C[C@@H](NS(C)(=O)=O)C3)n(C)c2C)ccc1F [Example 669, N-(4-fluoro-3-methylphenyl)-1,2,4-trimethyl-5-(2-(((1s,3s)-3-(methylsulfonamido)cyclobutyl)amino)-2-oxoacetyl)-1H-pyrrole-3-carboxamide] | < 0.05 µM | > 30 µM |
| CC(=O)N[C@H]1C[C@H](NC(=O)C(=O)c2c(C)c(C(=O)Nc3ccc(F)c(C)c3)c(C)n2C)C1 [Example 670, 5-(2-(((1r,3r)-3-acetamidocyclobutyl)amino)-2-oxoacetyl)-N-(4-fluoro-3-methylphenyl)-1,2,4-trimethyl-1H-pyrrole-3-carboxamide] | < 0.05 µM | > 30 µM |
| Cc1cc(NC(=O)c2c(C)c(C(=O)C(=O)N[C@H]3CCNC3=O)n(C)c2C)ccc1F [Example 671, (S)-N-(4-fluoro-3-emthylphenyl)-1,2,4-trimethyl-5-(2-oxo-2-((2-oxopyrroldin-3-yl)amino)acetyl)-1H-pyrrole-3-carboxamide] | < 0.05 µM | > 30 µM |
| Cc1cc(NC(=O)c2c(C)c(C(=O)C(=O)N[C@@H]3CCNC3=O)n(C)c2C)ccc1F [Example 672, (R)-N-(4-fluoro-3-methylphenyl)-1,2,4-trimethyl-5-(2-oxo-2-((2-oxopyrrolidin-3-yl)amino)acetyl)-1H-pyrole-3-carboxamide] | < 0.05 µM | > 30 µM |
| Cc1cc(NC(=O)c2c(C)c(C(=O)C(=O)N[C@@H]3CCCNC3=O)n(C)c2C)ccc1F [Example 673, (R)-N-(4-fluoro-3-methylphenyl)-1,2,4-trimethyl-5-(2-oxo-2-((2-oxopiperidin-3-yl)amino)acetyl)-1H-pyrrole-3-carboxamide] | < 0.05 µM | > 30 µM |
| Cc1cc(NC(=O)c2c(C)c(C(=O)C(=O)Nc3cc(F)[nH]c(=O)c3)n(C)c2C)ccc1F [Example 674, 5-(2-((6-fluoro-2-oxo-1,2-dihydropyridin-4-yl)amino)-2-oxoacetyl)-N-(4-fluoro-3-methylphenyl)-1,2,4-trimethyl-1H-pyrrole-3-carboxamide] | 0.05 to 0.499 µM | 5 to 30 µM |
| Cc1cc(NC(=O)c2c(C)c(C(=O)C(=O)N[C@H]3CC[C@H](CO)CC3)n(C)c2C)ccc1F [Example 675, N-(4-fluoro-3-methylphenyl)-5-(2-(((1r,4r)-4-(hydroxymethyl)cyclohexyl)amino)-2-oxoacetyl)-1,2,4-trimethyl-1H-pyrrole-3-carboxamide] | < 0.05 µM | > 30 µM |
| Cc1cc(NC(=O)c2c(C)c(C(=O)C(=O)N[C@H]3CC[C@@H](CO)CC3)n(C)c2C)ccc1F [Example 676, N-(4-fluoro-3-methylphenyl)-5-(2-(((1s,4s)-4-(hydroxymethyl)cyclohexyl)amino)-2-oxoacetyl)-1,2,4-trimethyl-1H-pyrrole-3-carboxamide] | < 0.05 µM | > 30 µM |
| Cc1cc(NC(=O)c2c(C)c(C(=O)C(=O)N[C@H]3CC[C@H](C(C)(C)O)CC3)n(C)c2C)ccc1F [Example 677, N-(4-fluoro-3-methylphenyl)-5-(2-(((1r,4r)-4-(2-hydroxypropan-2-yl)cyclohexyl)amino)-2-oxoacetyl)-1,2,4-trimethyl-1H-pyrrole-3-carboxamide] | < 0.05 µM | > 30 µM |
| Cc1cc(NC(=O)c2c(C)c(C(=O)C(=O)Nc3ccc4c(c3)COB4O)n(C)c2C)ccc1F [Example 678, N-(4-fluoro-3-methylphenyl)-5-(2-((1-hydroxy-1,3-dihydrobenzo[c][1,2]oxaborol-5-yl)amino)-2-oxoacetyl)-1,2,4-trimethyl-1H-pyrrole-3-carboxamide] | < 0.05 µM | 5 to 30 µM |
| Cc1cc(NC(=O)c2c(C)c(C(=O)C(=O)NC3C(=O)NCC3(C)C)n(C)c2C)ccc1F (centres unmarked) [Example 679, 5-(2-((4,4-dimethyl-2-oxopyrrolidin-3-yl)amino)-2-oxoacetyl)-N-(4-fluoro-3-methylphenyl)-1,2,4-trimethyl-1H-pyrrole-3-carboxamide] | < 0.05 µM | > 30 µM |
| Cc1cc(NC(=O)c2c(C)c(C(=O)C(=O)NC3(C)C(=O)NCC34CC4)n(C)c2C)ccc1F (centres unmarked) [Example 680, N-(4-fluoro-3-methylphenyl)-1,2,4-trimethyl-5-(2-((7-methyl-6-oxo-5-azaspiro[2.4]heptan-7-yl)amino)-2-oxoacetyl)-1H-pyrrole-3-carboxamide] | < 0.05 µM | > 30 µM |
| Cc1cc(NC(=O)c2c(C)c(C(=O)C(=O)NC3(C(=O)NC(C)(C)CO)CCOCC3)n(C)c2C)ccc1F [Example 681, N-(4-fluoro-3-methylphenyl)-5-(2-((4-((1-hydroxy-2-methylpropan-2-yl)carbamoyl)tetrahydro-2H-pyran-4-yl)amino)-2-oxoacetyl)-1,2,4-trimethyl-1H-pyrrole-3-carboxamide] | < 0.05 µM | > 30 µM |
| CC[C@H](C)NC(=O)C1(NC(=O)C(=O)c2c(C)c(C(=O)Nc3ccc(F)c(C)c3)c(C)n2C)CCOCC1 [Example 682, (S)-5-(2-((4-(sec-butylcarbamoyl)tetrahydro-2H-pyran-4-yl)amino)-2-oxoacetyl)-N-(4-fluoro-3-methylphenyl)-1,2,4-trimethyl-1H-pyrrole-3-carboxamide] | < 0.05 µM | > 30 µM |
| Cc1cc(NC(=O)c2c(C)c(C(=O)C(=O)NC3(C(=O)N[C@]4(C)C[C@H](O)C4)CCOCC3)n(C)c2C)ccc1F [Example 683, N-(4-fluoro-3-methylphenyl)-5-(2-((4-(((1s,3s)-3-hydroxy-1-methylcyclobutyl)carbamoyl)tetrahydro-2H-pyran-4-yl)amino)-2-oxoacetyl)-1,2,4-trimethyl-1H-pyrrole-3-carboxamide] | < 0.05 µM | > 30 µM |
| Cc1cc(Cl)cc(NC(=O)c2c(C)c(C(=O)C(=O)N[C@H]3CNC(=O)C3)n(C)c2C)c1 [Example 684, (R)-N-(3-chloro-5-methylphenyl)-1,2,4-trimethyl-5-(2-oxo-2-((5-oxopyrrolidin-3-yl)amino)acetyl)-1H-pyrrole-3-carboxamide] | < 0.05 µM | > 30 µM |
| Cc1cc(Cl)cc(NC(=O)c2c(C)c(C(=O)C(=O)N[C@H]3CC[C@@H](O)CC3)n(C)c2C)c1 [Example 685, N-(3-chloro-5-methylphenyl)-5-(2-(((1s,4s)-4-hydroxycyclohexyl)amino)-2-oxoacetyl)-1,2,4-trimethyl-1H-pyrrole-3-carboxamide] | < 0.05 µM | > 30 µM |
| Cc1cc(Cl)cc(NC(=O)c2c(C)c(C(=O)C(=O)N[C@H](C)C(F)(F)F)n(C)c2C)c1 [Example 686, (R)-N-(3-chloro-5-methylphenyl)-1,2,4-trimethyl-5-(2-oxo-2-((1,1,1-trifluoropropan-2-yl)amino)acetyl)-1H-pyrrole-3-carboxamide] | < 0.05 µM | 0.5 to 4.99 µM |
| Cc1cc(Cl)cc(NC(=O)c2c(C)c(C(=O)C(=O)N[C@]3(C)CC[C@@H](O)CC3)n(C)c2C)c1 [Example 687, N-(3-chloro-5-methylphenyl)-5-(2-(((1r,4r)-4-hydroxy-1-metthylcyclohexyl)amino)-2-oxoacetyl)-1,2,4-trimethyl-1H-pyrrole-3-carboxamide] | < 0.05 µM | 5 to 30 µM |
| Cc1cc(Cl)cc(NC(=O)c2c(C)c(C(=O)C(=O)N[C@@H]3CCC[C@@H](O)C3)n(C)c2C)c1 [Example 688, N-(3-chloro-5-methylphenyl)-5-(2-(((1R,3R)-3-hydroxycyclohexyl)amino)-2-oxoacetyl)-1,2,4-trimethyl-1H-pyrrole-3-carboxamide] | < 0.05 µM | > 30 µM |
| Cc1c(C(=O)Nc2cccc(Cl)c2)c(C)n(C)c1C(=O)C(=O)N[C@@H]1CCC[C@@H](O)C1 [Example 689, N-(3-chlorophenyl)-5-(2-(((1R,3R)-3-hydroxycyclohexyl)amino)-2-oxoacetyl)-1,2,4-trimethyl-1H-pyrrole-3-carboxamide] | < 0.05 µM | > 30 µM |
| Cc1c(C(=O)Nc2cccc(C(F)F)c2)c(C)n(C)c1C(=O)C(=O)N[C@H]1CC[C@@H](O)CC1 [Example 690, N-(3-(difluoromethyl)phenyl)-5-(2-(((1s,4s)-4-hydroxycylcohexyl)amino)-2-oxoacetyl)-1,2,4-trimethyl-1H-pyrrole-3-carboxamide] | < 0.05 µM | > 30 µM |
| Cc1cc(NC(=O)c2c(C)c(C(=O)C(=O)NC3(C)CCN(c4ncccn4)CC3)n(C)c2C)ccc1F [Example 691, N-(4-fluoro-3-methylphenyl)-1,2,4-trimethyl-5-(2-((4-methyl-1-(pyrimidin-2-yl)piperidin-4-yl)amino)-2-oxoacetyl)-1H-pyrrole-3-carboxamide] | < 0.05 µM | > 30 µM |
| Cc1cc(NC(=O)c2c(C)c(C(=O)C(=O)NC3(C)CCN(C(=O)c4ccnn4C)CC3)n(C)c2C)ccc1F [Example 692, N-(4-fluoro-3-methylphenyl)-1,2,4-trimethyl-5-(2-((4-methyl-1-(1-methyl-1H-pyrazole-5-carbonyl)piperidin-4-yl)amino)-2-oxoacetyl)-1H-pyrrole-3-carboxamide] | < 0.05 µM | > 30 µM |
| Cc1cc(NC(=O)c2c(C)c(C(=O)C(=O)NC3(C)CCN(C(=O)c4cnn(C)c4)CC3)n(C)c2C)ccc1F [Example 693, N-(4-fluoro-3-methylphenyl)-1,2,4-trimethyl-5-(2-((4-methyl-1-(1-methyl-1H-pyrazole-4-carbonyl)piperidin-4-yl)amno)-2-oxoacetyl)-1H-pyrrole-3-carboxamide] | < 0.05 µM | > 30 µM |
